The results in this text go back to ChEMBL document CHEMBL4673278, “Identification and Characterization of a Peptide from the Stony Coral Heliofungia actiniformis” (J Nat Prod, 2020).

One series deals with Serratia marcescens. Nature of the series: Antibacterial activity against Serratia marcescens assessed as reduction in microbial growth at 0.024 to 0.113 mg/ml after 270 mins by microdilution assay. It is filed as functional, organism-based. Particulars: dose 0.024-0.113 mg/ml. On the technique in general: Broth dilution looks for growth in wells or tubes with falling amounts of substance.

The test system of a further series is Streptococcus pneumoniae. Nature of the series: Antibacterial activity against Streptococcus pneumoniae assessed as reduction in microbial growth at 0.024 to 0.113 mg/ml after 270 mins by microdilution assay. It counts as functional, organism-based. Particulars: dose 0.024-0.113 mg/ml.
The next series has as its system Enterococcus faecalis. The series can be described thus: Antibacterial activity against Enterococcus faecalis assessed as reduction in microbial growth at 0.024 to 0.113 mg/ml after 270 mins by microdilution assay. It counts as functional, organism-based. Particulars: dose 0.024-0.113 mg/ml.
In series [1] the target is T1, Albumin (Homo sapiens, UniProt P02768). The series can be described thus: Binding affinity to albumin (unknown origin) at 3 mM measured up to 24 hrs by RP-HPLC analysis. It is filed as ADME, cell-free. Particulars: serum, 3000 µM.
T1 sequence (P02768 whole entry): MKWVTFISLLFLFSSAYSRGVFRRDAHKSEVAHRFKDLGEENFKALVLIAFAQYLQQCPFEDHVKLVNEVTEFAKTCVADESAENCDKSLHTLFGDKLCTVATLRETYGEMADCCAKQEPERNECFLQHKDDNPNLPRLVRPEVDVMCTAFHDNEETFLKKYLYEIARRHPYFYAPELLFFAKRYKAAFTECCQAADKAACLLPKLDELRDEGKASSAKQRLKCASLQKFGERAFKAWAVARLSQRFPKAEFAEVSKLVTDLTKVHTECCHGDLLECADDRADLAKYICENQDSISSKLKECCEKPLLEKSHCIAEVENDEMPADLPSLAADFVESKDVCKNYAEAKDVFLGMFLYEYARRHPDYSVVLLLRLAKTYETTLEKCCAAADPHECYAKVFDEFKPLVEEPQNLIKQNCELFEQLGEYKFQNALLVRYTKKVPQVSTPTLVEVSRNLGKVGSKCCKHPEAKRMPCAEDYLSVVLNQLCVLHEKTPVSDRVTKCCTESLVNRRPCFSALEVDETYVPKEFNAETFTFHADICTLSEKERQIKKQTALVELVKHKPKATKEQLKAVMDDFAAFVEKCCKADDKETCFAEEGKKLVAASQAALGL
For a further series, the system named is Pseudomonas aeruginosa. Nature of the series: Antibacterial activity against Pseudomonas aeruginosa assessed as reduction in microbial growth at 0.024 to 0.113 mg/ml after 270 mins by microdilution assay. It is filed as functional, organism-based. Particulars: dose 0.024-0.113 mg/ml.
Series [2] has as its system Pseudoalteromonas shioyasakiensis. Nature of the series: Antibacterial activity against Pseudoalteromonas […] assessed as reduction in microbial growth at 0.024 to 0.113 mg/ml after 270 mins by microdilution assay. It counts as functional. Particulars: dose 0.024-0.113 mg/ml.
In a further series the test system is PBMC. Nature of the series: Antiinflammatory activity against LPS-induced human PBMC cells assessed as reduction in TNF-alpha expression at 7.5 to 100 ug/ml by ELISA. Particulars: dose 7.5-100 µg/ml. It is filed as functional, cell-based.
A further series deals with Staphylococcus aureus. Nature of the series: Antibacterial activity against methicillin-resistant Staphylococcus aureus assessed as reduction in microbial growth at 0.024 to 0.113 mg/ml after 270 mins by microdilution assay. It counts as functional, organism-based. Particulars: dose 0.024-0.113 mg/ml.
In the next series the test system is Escherichia coli. The series can be described thus: Antibacterial activity against Escherichia coli assessed as reduction in microbial growth at 0.024 to 0.113 mg/ml after 270 mins by microdilution assay. It counts as functional, organism-based. Particulars: dose 0.024-0.113 mg/ml.
The subject of a further series is Alteromonas macleodii. The series can be described thus: Antibacterial activity against Alteromonas macleodii assessed as reduction in microbial growth at 0.024 to 0.113 mg/ml after 270 mins by microdilution assay. It is filed as functional. Particulars: dose 0.024-0.113 mg/ml.
A further series concerns Klebsiella pneumoniae. The series can be described thus: Antibacterial activity against Klebsiella pneumoniae assessed as reduction in microbial growth at 0.024 to 0.113 mg/ml after 270 mins by microdilution assay. It counts as functional, organism-based. The following applies: dose 0.024-0.113 mg/ml.
A further series has as its system Vibrio harveyi. Nature of the series: Antibacterial activity against Vibrio harveyi assessed as reduction in microbial growth at 0.024 to 0.113 mg/ml after 270 mins by microdilution assay. The following applies: dose 0.024-0.113 mg/ml. It is filed as functional, organism-based.
The next series relates to Vibrio mediterranei. The series can be described thus: Antibacterial activity against Vibrio shilonii assessed as reduction in microbial growth at 0.024 to 0.113 mg/ml after 270 mins by microdilution assay. It is filed as functional. The following applies: dose 0.024-0.113 mg/ml.
The test system of a further series is Streptococcus pyogenes. The series can be described thus: Antibacterial activity against Streptococcus pyogenes assessed as reduction in microbial growth at 0.024 to 0.113 mg/ml after 270 mins by microdilution assay. The following applies: dose 0.024-0.113 mg/ml. It counts as functional, organism-based.
For series [3], the target named is T1, Albumin. Nature of the series: Binding affinity to human serum albumin assessed as remaining parent compound at 3 mM measured up to 24 hrs by RP-HPLC analysis. It is filed as ADME, cell-free. Particulars: read-out: Activity.
For another series, the system named is Vibrio coralliilyticus. The series can be described thus: Antibacterial activity against Vibrio coralliilyticus assessed as reduction in microbial growth at 0.024 to 0.113 mg/ml after 270 mins by microdilution assay. It counts as functional. The following applies: dose 0.024-0.113 mg/ml.
A short description of series [4]: Cytotoxicity against human PBMC cells assessed as reduction in cell viability at 5 to 50 ug/ml measured up to 48 hrs by CellTox Green assay. It is filed as cell-based. Particulars: dose 5-50 µg/ml.
Series [5] deals with Tenacibaculum skagerrakense. The series can be described thus: Antibacterial activity against Tenacibaculum skagerrakense assessed as reduction in microbial growth at 0.024 to 0.113 mg/ml after 270 mins by microdilution assay. It is filed as functional. The following applies: dose 0.024-0.113 mg/ml.

The structures appear in SMILES notation. Calls of active or inactive are those of the source. The rule behind the calls is not given here. Bridge positions count the residues as written; N and C are the ends. Peptide text beside a SMILES is read from it.

In the case of `CC[C@H](C)[C@@H]1NC(=O)[C@H](CC(C)C)NC(=O)CNC(=O)[C@H](Cc2ccccc2)NC(=O)[C@@H]2CCCN2C(=O)[C@H]([C@@H](C)O)NC(=O)[C@H](Cc2ccc(O)cc2)NC(=O)[C@H](Cc2c[nH]cn2)NC(=O)[C@@H](NC(=O)CN)CSSC[C@@H](C(=O)N[C@@H](Cc2ccccc2)C(=O)O)NC1=O` (H-GCHYTPFGLICF-OH; disulfide 2-11), the outcome (in the series on Serratia marcescens; in the series with Streptococcus pneumoniae; with Enterococcus faecalis; in the series with Pseudomonas aeruginosa; in [2]; in the series with Escherichia coli) was inactive. The outcome (in the series with Alteromonas macleodii; in the series on Klebsiella pneumoniae; with Vibrio harveyi; in the series on Vibrio mediterranei; in the series on Vibrio coralliilyticus; in series [5]) was inactive. Further, the results for the Activity result (at Albumin [1]; in series [4]) were “Active” and “Non-Toxic”, respectively. Besides, the result in the series on PBMC, in the series with Staphylococcus aureus and in the series with Streptococcus pyogenes was Active. Besides, the remaining at 24 h, 3000 µM on Albumin [3] turned out to be 3%.
With `CC[C@H](C)[C@H](NC(=O)[C@@H](NC(=O)[C@@H](N)Cc1ccccc1)[C@H](C)O)C(=O)N[C@@H](Cc1ccc(O)cc1)C(=O)N1CCC[C@H]1C(=O)NCC(=O)N[C@H]1CSSC[C@@H](C(=O)O)NC(=O)[C@H](Cc2ccccc2)NC(=O)[C@H](CC(C)C)NC(=O)CNC(=O)[C@H](Cc2c[nH]cn2)NC1=O`, the remaining at 24 h, 3000 µM at Albumin [3] came to 85%.
